# Measurements from ChEMBL document CHEMBL1125004, “Chemistry and pharmacology of the non-benzodiazepine anxiolytic enciprazine and related compounds” (1990).
# The source made the active and inactive calls. The rule behind the calls is not given here.
# How the values were obtained:
# Rattus norvegicus [1] = assay: Effect on piloerection after oral administration of 100 mg/kg in rat was determined; '-' No effect; format: functional, organism-based; parameters: dose 100 mg/kg
# [2] = Ratio of ED50 (ethanol) to that of ED50 (fighting); format: functional
# Rattus norvegicus [3] = assay: Effect on tremor after oral administration of 100 mg/kg in rat was determined; '-' No effect; format: functional, organism-based; parameters: dose 100 mg/kg
# Rattus norvegicus [4] = assay: Effect on jumping after oral administration of 100 mg/kg in rat was determined; '-' No effect; format: functional, organism-based; parameters: dose 100 mg/kg
# Rattus norvegicus [5] = assay: Effect on restlessness after oral administration of 100 mg/kg in rat was determined; '-' No effect; format: functional, organism-based; parameters: dose 100 mg/kg
# [6] = Ratio of ED50 (hexobarbital) to that of ED50 (fighting); format: functional
# Rattus norvegicus [7] = assay: Effect on diarrheal after oral administration of 100 mg/kg in rat was determined; '-' No effect; format: functional, organism-based; parameters: dose 100 mg/kg
# [8] = Ratio of ED50 (rotarod) to that of ED50 (fighting); format: functional
# Rattus norvegicus [9] = assay: Effect on jumping after oral administration of 50 mg/kg in rat was determined; '-' No effect; format: functional, organism-based; parameters: dose 50 mg/kg
# Rattus norvegicus [10] = assay: Effect on salivation after oral administration of 100 mg/kg in rat was determined; '-' No effect; format: functional, organism-based; parameters: dose 100 mg/kg
# Rattus norvegicus [11] = assay: Effect on tremor after oral administration of 50 mg/kg in rat was determined; '-' No effect; format: functional, organism-based; parameters: dose 50 mg/kg
# Rattus norvegicus [12] = assay: Effect on diarrheal after oral administration of 50 mg/kg in rat was determined; '-' No effect; format: functional, organism-based; parameters: dose 50 mg/kg
# Rattus norvegicus [13] = assay: Effect on salivation after oral administration of 50 mg/kg in rat was determined; '-' No effect; format: functional, organism-based; parameters: dose 50 mg/kg
# Rattus norvegicus [14] = assay: Effect on restlessness after oral administration of 50 mg/kg in rat was determined; '-' No effect; format: functional, organism-based; parameters: dose 50 mg/kg
# Rattus norvegicus [15] = assay: Effect on piloerection after oral administration of 50 mg/kg in rat was determined; '-' No effect; format: functional, organism-based; parameters: dose 50 mg/kg
# Mus musculus [16] = species: Mus musculus; assay: Ataxic activity in mice by rotarod test; Range (64.3-92.1); format: functional
# Mus musculus [17] = species: Mus musculus; assay: Effect on alcohol induced sleep was determined in ethanol potentiation test; Range; format: functional
# Mus musculus [18] = assay: Antiaggressive anxiolytic activity in the electroshock-induced fighting test in mice (po); Range (10.32-18.72); format: functional
# Mus musculus [19] = species: Mus musculus; assay: Effect on hexobarbital induced sleep was determined in hexobarbital potentiation test; Range; format: functional
# Mus musculus [20] = species: Mus musculus; assay: Ataxic activity in mice by rotarod test; Range (2.2-6.4); format: functional
# Mus musculus [21] = species: Mus musculus; assay: Effect on hexobarbital induced sleep was determined in hexobarbital potentiation test; Range (9.6-17.1); format: functional
# Mus musculus [22] = assay: Antiaggressive anxiolytic activity in the electroshock-induced fighting test in mice (po); Range (1.03-4.7;); format: functional
smiles,measurement,setting,value
COc1ccccc1N1CCN(CC(O)COc2cc(OC)c(OC)c(OC)c2)CC1 (configuration not stated),Effect,Rattus norvegicus [1],inactive
same,Therapeutic index,[2],32.5
same,Effect,Rattus norvegicus [3],inactive
same,Effect,Rattus norvegicus [4],inactive
same,Effect,Rattus norvegicus [5],inactive
same,Therapeutic index,[6],33
same,Effect,Rattus norvegicus [7],inactive
same,Therapeutic index,[8],86
same,Effect,Rattus norvegicus [9],inactive
same,Effect,Rattus norvegicus [10],inactive
same,Effect,Rattus norvegicus [11],inactive
same,Effect,Rattus norvegicus [12],inactive
same,Effect,Rattus norvegicus [13],inactive
same,Effect,Rattus norvegicus [14],inactive
same,Effect,Rattus norvegicus [15],inactive
O=C1CC2(CCCC2)CC(=O)N1CCCCN1CCN(c2ncccn2)CC1 [BUSPIRONE],Therapeutic index,[2],0.8
same,Therapeutic index,[6],0.7
same,Therapeutic index,[8],5.3
same,ED50,Mus musculus [16],77 mg/kg
same,ED50,Mus musculus [17],62.8 mg/kg
same,ED50,Mus musculus [18],14.5 mg/kg
same,ED50,Mus musculus [19],54.5 mg/kg
CN1C(=O)CC(=O)N(c2ccccc2)c2cc(Cl)ccc21 [CLOBAZAM],Therapeutic index,[6],5.6
same,ED50,Mus musculus [20],4.1 mg/kg
same,Therapeutic index,[8],1.8
same,ED50,Mus musculus [21],13.2 mg/kg
same,ED50,Mus musculus [22],2.35 mg/kg
